# Measured values as given in patent publication US11926645B2, “Compounds and methods for treatment of viral infections” (priority 2020, dated 2024).
# Like-named read-outs stand apart in the source and are kept apart here.
# Tests used:
# Plasma stability = conditions: human
# in vitro [1] = assay type: cell-based; conditions: human
# Method: The cytotoxicity of compounds was determined in A549-hACE2 cells in the following manner. Compounds (200 nL) were spotted onto 384-well Grenier plates prior to seeding 5000 A549-hACE2 cells/well in a volume of 40 μL culture medium. The plates were incubated at 37° C. for 48 hours with 5% CO2. On day 2, 40 μL of CellTiter-Glo (Promega) was added and mixed 5 times.
# RSV strain A2 = experiment: RSV antiviral assay (Hep2), EC50-Hep2/B1-384; assay type: cell-based; conditions: human respiratory syncytial virus, HEp-2, 96 h; Hep2 cells, 4 days, Cell-Titer Glo
# SARS-CoV-2-Nluc viruses = experiment: microbe, parasite or virus in culture; assay type: cell-based; conditions: Severe acute respiratory syndrome coronavirus 2, 48 h; read-out: SARS-CoV2 EC50
# CES1 = target: T1, CES1 (Homo sapiens, UniProt P23141); experiment: CES1/2 stability, CES1; assay type: in vitro ADME; conditions: CES1 Supersome preparation; Supersome preparations, CES 1.5 mg/ml, 2 μM substrate, pH 7.4, 37° C.; read-out: CES1 T1/2
# T1 construct: purchased
# T1 sequence (P23141 18-567): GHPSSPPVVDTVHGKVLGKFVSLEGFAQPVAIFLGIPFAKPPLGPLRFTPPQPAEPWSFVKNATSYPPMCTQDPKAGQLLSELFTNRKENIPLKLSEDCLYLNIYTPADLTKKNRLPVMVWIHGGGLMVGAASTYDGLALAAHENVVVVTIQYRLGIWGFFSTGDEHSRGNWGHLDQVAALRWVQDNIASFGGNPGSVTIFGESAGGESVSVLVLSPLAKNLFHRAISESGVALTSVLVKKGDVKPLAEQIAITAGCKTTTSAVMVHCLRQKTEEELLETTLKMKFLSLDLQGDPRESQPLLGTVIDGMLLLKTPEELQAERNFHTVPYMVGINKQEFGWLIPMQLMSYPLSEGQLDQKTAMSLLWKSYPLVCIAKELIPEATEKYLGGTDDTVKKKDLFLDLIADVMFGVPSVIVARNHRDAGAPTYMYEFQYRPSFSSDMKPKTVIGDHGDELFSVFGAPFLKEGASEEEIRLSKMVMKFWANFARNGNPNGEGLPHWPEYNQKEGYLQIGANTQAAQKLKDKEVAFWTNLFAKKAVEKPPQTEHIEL
# Method: (§1) Test compounds or positive control substrates (oseltamivir for CES1 enzymes or procaine for CES2) were incubated with individual Supersome preparations (final CES concentration 1.5 mg/ml) in 0.1 M potassium phosphate buffer (pH 7.4) at 37° C. Substrates were added to a final concentration of 2 μM to initiate the reaction. The final incubation volume was 250 μL. Aliquots were removed after incubation for 0, 10, 30, 60 and 120 min. The reactions were stopped by the addition of IS/Q. Following protein precipitation and centrifugation, 150 μL of supernatant was diluted with an equal volume of water prior to LC-MS analysis. For procaine 150 μL of supernatant was dried down and reconstituted with 250 μL water. All samples were analyzed by LC-MS and the PAR values were used for quantification.
# SARS-CoV-2 = test system: SARS-CoV-2; set-up: species or system ferrets; conditions: in vivo, po
# [2] = male, Sprague-Dawley, rat, in vivo, po, 6 mg/kg
# in vitro [3] = assay type: in vitro ADME, Human; conditions: human, s9, pH 7.4
# Method: (§2) Duplicate aliquots of test compound or positive control substrate (GS-7340) were added to S9 stock diluted with 100 mM phosphate buffered saline, pH 7.4, to obtain a protein concentration of 1.0 mg/mL. The S9 metabolic reactions were initiated by the addition of the substrates to the S9 reaction mixture to a final concentration of 2 μM. At 0, 10, 20, 30, 60 and 120 min, 25 μL aliquots of the reaction mixture were transferred to plates containing 225 μl of IS/Q solution. After quenching, the plates were centrifuged at 3000×g for 30 minutes, and 150 μL aliquots of each supernatant were diluted with 150 μL water. Aliquots (10 μL) of the diluted supernatant were analyzed on a Thermo Q-Exactive mass spectrometer as described below.
# (§3) Quantification of test compounds and controls was performed by analyte/internal standard peak area ratio (PAR) values measured on a Thermo Q-Exactive mass spectrometer coupled to a Dionex UltiMate 3000 HPLC with a Leap Technologies HTC PAL autosampler. The column used was a Thermo Hypersil GOLD (1.9 μm particle size, 2.1×50 mm). Mobile phase A consisted of 0.1% (v/v) formic acid in water. Mobile phase B consisted of 0.1% (v/v) formic acid in acetonitrile. Elution of analytes was achieved by a series of linear gradients of acetonitrile in water containing 0.1% (v/v) formic acid. The mass spectrometer was calibrated on a weekly basis and mass tolerance of 5 ppm was used.
# in vitro [4] = assay type: in vitro ADME; conditions: s9, pH 7.4
# Method: as §2, with “mM potassium” for “mM”, “phosphate buffer,” for “phosphate buffered saline,”, “of 2.4” for “of 1.0”, “At 2, 12, 25, 45, 65” for “At 0, 10, 20, 30, 60”, “and 90” for “and 120”, “150 μl,” for “150 μL”
# as §3
# [5] = test system: RSV-Fluc (Respiratory Syncytial virus strain A2 containing the firefly luciferase reporter); experiment: microbe, parasite or virus in culture; assay type: cell-based; conditions: human respiratory syncytial virus, 72 h, NHBE cells, three days
# CES2 = target: T2, CES2 (Homo sapiens, UniProt O00748); experiment: CES1/2 stability, CES2; assay type: in vitro ADME; conditions: CES2 Supersome preparation; Supersome preparations, CES 1.5 mg/ml, 2 μM substrate, pH 7.4, 37° C.; read-out: CES2 T1/2
# T2 construct: purchased
# T2 sequence (O00748 27-559): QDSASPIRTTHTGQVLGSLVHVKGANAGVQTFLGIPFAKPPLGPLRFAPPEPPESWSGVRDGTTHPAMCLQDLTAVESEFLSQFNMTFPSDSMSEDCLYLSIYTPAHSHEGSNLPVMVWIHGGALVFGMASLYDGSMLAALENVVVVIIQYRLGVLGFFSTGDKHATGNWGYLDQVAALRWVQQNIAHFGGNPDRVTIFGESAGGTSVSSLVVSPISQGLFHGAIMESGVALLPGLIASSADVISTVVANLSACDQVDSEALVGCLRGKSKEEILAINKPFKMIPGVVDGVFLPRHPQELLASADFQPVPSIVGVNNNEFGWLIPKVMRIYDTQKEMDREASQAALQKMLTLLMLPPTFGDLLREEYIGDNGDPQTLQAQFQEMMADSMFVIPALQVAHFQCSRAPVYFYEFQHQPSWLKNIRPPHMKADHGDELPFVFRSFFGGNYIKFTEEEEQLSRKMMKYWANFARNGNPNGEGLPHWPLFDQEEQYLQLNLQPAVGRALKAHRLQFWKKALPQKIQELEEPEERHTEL
# Method: as §1
# [6] = test system: SARS-CoV-2 2019-nCoV/USA-WA1/2020; assay type: in vivo; conditions: in vivo
# [7] = assay type: in vivo, Sprague-Dawley rats; conditions: male, Sprague-Dawley, rat, in vivo, po, 12.7 mg/kg
# Method: β-d-N^4-hydroxycytidine (NHC) was dosed orally by gavage to male Sprague-Dawley rats (n=3) at 10 mg/kg in 3.9% citric acid and 96.1% water, pH 2.8; Molnupiravir at 12.7 mg/kg in 2.5% kolliphor RH 40, 10% polyethylene glycol 300 and 87.5% water, pH 5.3. […]
smiles,measurement,setting,value
"CC(C)C(=O)OC[C@H]1O[C@@](C#N)(c2ccc3c(N)ncnn23)[C@H](O)[C@@H]1O [Compound 15, ((2R,3S,4R,5R)-5-(4-aminopyrrolo[2,1-f][1,2,4]triazin-7-yl)-5-cyano-3,4-dihydroxytetrahydrofuran-2-yl)methyl isobutyrate]",half-life at 2 μM,Plasma stability,29 min
same,CC50 at 48 h,in vitro [1],> 50000 nM
same,EC50,RSV strain A2,407 nM
same,EC50,SARS-CoV-2-Nluc viruses,1030 nM
same,half-life at 2 μM,CES1,6 min
same,"Change from vehicle, nasal lavage AUC(0-96) PFU/mL",SARS-CoV-2; 5 mg/kg,−2.21 log10
same,"Change from vehicle, nasal lavage AUC(0-96) RNA copies/μL",SARS-CoV-2; 5 mg/kg,−1.33 log10
same,"Change from vehicle, nasal turbinate terminal PFU/mL",SARS-CoV-2; 5 mg/kg,−1.68 log10
same,"Change from vehicle, nasal turbinate terminal RNA copies/μL",SARS-CoV-2; 5 mg/kg,−2.14 log10
same,"Change from vehicle, nasal lavage AUC(0-96) PFU/mL",SARS-CoV-2; 10 mg/kg,−2.50 log10
same,"Change from vehicle, nasal lavage AUC(0-96) RNA copies/μL",SARS-CoV-2; 10 mg/kg,−1.51 log10
same,"Change from vehicle, nasal turbinate terminal PFU/mL",SARS-CoV-2; 10 mg/kg,−2.20 log10
same,"Change from vehicle, nasal turbinate terminal RNA copies/μL",SARS-CoV-2; 10 mg/kg,−1.79 log10
same,"Change from vehicle, nasal lavage AUC(0-96) PFU/mL",SARS-CoV-2; 40 mg/kg,−2.80 log10
same,"Change from vehicle, nasal lavage AUC(0-96) RNA copies/μL",SARS-CoV-2; 40 mg/kg,−1.91 log10
same,"Change from vehicle, nasal turbinate terminal PFU/mL",SARS-CoV-2; 40 mg/kg,−3.79 log10
same,"Change from vehicle, nasal turbinate terminal RNA copies/μL",SARS-CoV-2; 40 mg/kg,−4.01 log10
same,Cmax,[2],2.1 µM
same,half-life at 2 μM,in vitro [3],69 min
same,half-life at 2 μM,in vitro [4],1.2 min
same,EC50,[5],588 nM
same,half-life at 2 μM,CES2,< 1 min
"CC(C)C(=O)OC[C@H]1O[C@@H](n2ccc(NO)nc2=O)[C@H](O)[C@@H]1O [Molnupiravir, reference compound]",half-life at 2 μM,Plasma stability,51 min
same,half-life at 2 μM,CES1,30 to 51 min
same,Clinical signs versus vehicle animals,[6],No significant differences in clinical signs
same,Shed virus load (nasal lavages) versus vehicle,[6],lower in all treated animals than in the vehicle group
same,Viral RNA copies in nasal lavages and turbinates versus vehicle,[6],statistically significant mean reduction
same,Virus burden in the turbinates,[6],reduced burden in the turbinates
same,Cmax,[7],4.09 µM
same,NHC AUCinf.,[7],8.96 µM·h
same,NHC F % (based on NHC mg-eq dose),[7],39.1%
same,NHC F % (based on molnupiravir dose),[7],30.8%
same,"Change from vehicle, nasal lavage AUC(0-96) PFU/mL",SARS-CoV-2; 5 mg/kg,−2.34 log10
same,"Change from vehicle, nasal lavage AUC(0-96) RNA copies/μL",SARS-CoV-2; 5 mg/kg,−0.87 log10
same,"Change from vehicle, nasal turbinate terminal PFU/mL",SARS-CoV-2; 5 mg/kg,−3.79 log10
same,"Change from vehicle, nasal turbinate terminal RNA copies/μL",SARS-CoV-2; 5 mg/kg,−2.68 log10
same,half-life at 2 μM,in vitro [3],> 700 min
same,half-life at 2 μM,CES2,9.8 min
